Measurements: the NIST ThermoML archive (doi:10.1016/j.jct.2013.03.020)
Values joined by “and” are separate entries in the source; they are usually repeats but may differ in a detail not shown here. Identical values can stand only once. Numbers after ± are expanded uncertainties.

Settings: Liquid, Closed cell (Static) method

SMILES	vapor or sublimation pressure (273.15 K)	vapor or sublimation pressure (283.15 K)	vapor or sublimation pressure (293.15 K)	vapor or sublimation pressure (303.15 K)	vapor or sublimation pressure (313.15 K)	vapor or sublimation pressure (323.15 K)	vapor or sublimation pressure (333.15 K)	vapor or sublimation pressure (343.15 K)	vapor or sublimation pressure (353.15 K)	vapor or sublimation pressure (363.15 K)	also measured
CN(C)CCO [2-(N,N-dimethylamino)ethanol]	0.142 ± 0.004 kPa	0.2979 ± 0.0068 kPa	0.59 ± 0.013 kPa	1.11 ± 0.024 kPa	1.993 ± 0.041 kPa	3.435 ± 0.071 kPa	5.705 ± 0.12 kPa	9.165 ± 0.19 kPa	14.29 ± 0.29 kPa	21.66 ± 0.44 kPa	vapor or sublimation pressure (273.86 K): 0.149 ± 0.0036 kPa; vapor or sublimation pressure (282.97 K): 0.2938 ± 0.0067 kPa and 0.2945 ± 0.0067 kPa; vapor or sublimation pressure (292.89 K): 0.5824 ± 0.013 kPa; vapor or sublimation pressure (292.91 K): 0.5823 ± 0.013 kPa and 0.5822 ± 0.013 kPa; vapor or sublimation pressure (302.89 K): 1.095 ± 0.024 kPa and 1.096 ± 0.024 kPa; vapor or sublimation pressure (312.86 K): 1.963 ± 0.041 kPa; vapor or sublimation pressure (323.03 K): 3.392 ± 0.07 kPa; vapor or sublimation pressure (333.06 K): 5.626 ± 0.11 kPa; vapor or sublimation pressure (343.05 K): 9.047 ± 0.19 kPa; vapor or sublimation pressure (353.04 K): 14.45 ± 0.3 kPa; vapor or sublimation pressure (363.1 K): 21.59 ± 0.43 kPa
CCN1CCOCC1 [4-ethylmorpholine]	–	0.5816 ± 0.013 kPa	1.083 ± 0.024 kPa	1.918 ± 0.04 kPa	3.253 ± 0.067 kPa	5.304 ± 0.11 kPa	8.353 ± 0.17 kPa	12.75 ± 0.26 kPa	18.92 ± 0.38 kPa	27.37 ± 0.56 kPa	vapor or sublimation pressure (283.98 K): 0.6293 ± 0.014 kPa; vapor or sublimation pressure (293.93 K): 1.142 ± 0.025 kPa; vapor or sublimation pressure (303.86 K): 1.985 ± 0.041 kPa and 1.989 ± 0.041 kPa; vapor or sublimation pressure (323.78 K): 5.303 ± 0.11 kPa; vapor or sublimation pressure (333.91 K): 8.702 ± 0.18 kPa; vapor or sublimation pressure (343.88 K): 13.07 ± 0.26 kPa; vapor or sublimation pressure (353.9 K): 18.88 ± 0.38 kPa; vapor or sublimation pressure (363.86 K): 28.78 ± 0.58 kPa
CC(C)N(C)C [N,N-dimethylisopropylamine]	6.65 ± 0.14 kPa	11.11 ± 0.22 kPa	17.77 ± 0.36 kPa	27.37 ± 0.55 kPa	40.76 ± 0.82 kPa	58.9 ± 1.2 kPa	82.89 ± 1.7 kPa	–	–	–	vapor or sublimation pressure (274.58 K): 7.183 ± 0.15 kPa and 7.185 ± 0.15 kPa and 7.197 ± 0.15 kPa; vapor or sublimation pressure (283.86 K): 11.39 ± 0.23 kPa; vapor or sublimation pressure (293.81 K): 18.3 ± 0.37 kPa and 18.39 ± 0.37 kPa; vapor or sublimation pressure (303.82 K): 28.18 ± 0.57 kPa; vapor or sublimation pressure (313.79 K): 41.76 ± 0.84 kPa and 41.79 ± 0.84 kPa and 41.8 ± 0.84 kPa; vapor or sublimation pressure (324.02 K): 60.66 ± 1.2 kPa and 60.72 ± 1.2 kPa; vapor or sublimation pressure (334.05 K): 85.36 ± 1.7 kPa [middle of 4 runs]
O [water]	0.5798 ± 0.013 kPa	1.183 ± 0.026 kPa	2.277 ± 0.047 kPa	4.165 ± 0.085 kPa	7.284 ± 0.15 kPa	12.23 ± 0.25 kPa	19.82 ± 0.4 kPa	31.09 ± 0.63 kPa and 30.82 ± 0.62 kPa	47.34 ± 0.95 kPa	70.22 ± 1.4 kPa	–
